{"source": "PubChem BioAssay AID328", "about": "(DTP/NCI, 2004)", "test_system": "BDF1 mice, P388 leukemia ip, median survival T/C", "test": "NCI In Vivo Anticancer Drug Screen. Data for tumor model P388 Leukemia (intraperitoneal) in B6D2F1 (BDF1) mice", "details": "endpoint: median survival time, higher = longer survival", "outline": "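Transplantable tumour in mice; compound vs vehicle dosing; survival scored; ratio of treated to control reported.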", "key": {"[1]": {"details": "dose: 100.0 mg/kg/injection, schedule: Q04DX003 (ip), vehicle: saline with Tween-80"}, "[2]": {"details": "dose: 200.0 mg/kg/injection, schedule: Q04DX003 (ip), vehicle: saline with Tween-80"}, "[3]": {"details": "dose: 400.0 mg/kg/injection, schedule: Q04DX003 (ip), vehicle: saline with Tween-80"}, "[4]": {"details": "dose: 100.0 mg/kg/injection, schedule: Q04DX003 (ip), vehicle: saline"}, "[5]": {"details": "dose: 100.0 mg/kg/injection, schedule: Q01DX009 (ip), vehicle: saline with Tween-80"}, "[6]": {"details": "dose: 200.0 mg/kg/injection, schedule: Q01DX009 (ip), vehicle: saline with Tween-80"}, "[7]": {"details": "dose: 400.0 mg/kg/injection, schedule: Q01DX009 (ip), vehicle: saline with Tween-80"}, "[8]": {"details": "dose: 100.0 mg/kg/injection, schedule: Q04DX003 (ip), vehicle: Klucel (hydroxypropylcellulose) (HPC)"}, "[9]": {"details": "dose: 200.0 mg/kg/injection, schedule: Q04DX003 (ip), vehicle: Klucel (hydroxypropylcellulose) (HPC)"}, "[10]": {"details": "dose: 400.0 mg/kg/injection, schedule: Q04DX003 (ip), vehicle: Klucel (hydroxypropylcellulose) (HPC)"}}, "note": "Where “and” joins values, the source holds several entries; their conditions need not be identical. Equal values may be shown once. Inconclusive results and toxic doses are left out.", "data": [{"smiles": "Fc1ccc(C=Nc2cccc(Cl)c2)cc1", "values": [{"measurement": "T/C", "setting": "[1]", "value": "108 % of control"}, {"measurement": "T/C", "setting": "[2]", "value": "104 % of control"}, {"measurement": "T/C", "setting": "[3]", "value": "108 % of control"}]}, {"smiles": "NC(CCl)=NC1CCCCC1", "values": [{"measurement": "T/C", "setting": "dose: 12.5 mg/kg/injection, schedule: Q04DX003 (ip), vehicle: saline", "value": "102 % of control"}, {"measurement": "T/C", "setting": "dose: 22.0 mg/kg/injection, schedule: Q04DX003 (ip), vehicle: saline", "value": "121 % of control"}, {"measurement": "T/C", "setting": "dose: 25.0 mg/kg/injection, schedule: Q04DX003 (ip), vehicle: saline", "value": "117 % of control"}, {"measurement": "T/C", "setting": "dose: 75.0 mg/kg/injection, schedule: Q04DX003 (ip), vehicle: saline", "value": "96 % of control"}, {"measurement": "T/C", "setting": "[4]", "value": "88 % of control"}]}, {"smiles": "O=[N+]([O-])c1ccc(Oc2cc(Cl)c(Cl)cc2Cl)c([N+](=O)[O-])c1", "values": [{"measurement": "T/C", "setting": "dose: 200.0 mg/kg/injection, schedule: Q01DX009 (ip), vehicle: saline sonified", "value": "90 % of control"}, {"measurement": "T/C", "setting": "dose: 400.0 mg/kg/injection, schedule: Q01DX009 (ip), vehicle: saline sonified", "value": "90 % of control"}]}, {"smiles": "CC1(C)OC2OC(COC(=O)c3ccccc3)C(=O)C2O1", "note": "(stereo not given)", "values": [{"measurement": "T/C", "setting": "[5]", "value": "92 % of control"}, {"measurement": "T/C", "setting": "[6]", "value": "92 % of control"}, {"measurement": "T/C", "setting": "[7]", "value": "101 % of control"}]}, {"smiles": "CCCCCCCCCCCCCCCCCCNC(=O)Nc1ccc(CC)cc1", "values": [{"measurement": "T/C", "setting": "[1]", "value": "90 % of control"}, {"measurement": "T/C", "setting": "[2]", "value": "104 % of control"}, {"measurement": "T/C", "setting": "[3]", "value": "95 % of control"}]}, {"smiles": "CN(C)CC(=O)Nc1nc(-c2ccc(Cl)cc2)cs1", "values": [{"measurement": "T/C", "setting": "dose: 50.0 mg/kg/injection, schedule: Q01DX005 (ip), vehicle: saline with Tween-80", "value": "101 % of control"}, {"measurement": "T/C", "setting": "dose: 100.0 mg/kg/injection, schedule: Q01DX005 (ip), vehicle: saline with Tween-80", "value": "92 % of control"}, {"measurement": "T/C", "setting": "dose: 200.0 mg/kg/injection, schedule: Q01DX005 (ip), vehicle: saline with Tween-80", "value": "99 % of control"}]}, {"smiles": "CC12CCCCC1C/C(=N/NC(N)=O)CC2", "note": "(stereo not given)", "values": [{"measurement": "T/C", "setting": "dose: 5.0 mg/kg/injection, schedule: Q01DX001 (ip), vehicle: saline", "value": "100 % of control"}, {"measurement": "T/C", "setting": "dose: 10.0 mg/kg/injection, schedule: Q01DX001 (ip), vehicle: saline", "value": "100 % of control"}, {"measurement": "T/C", "setting": "dose: 20.0 mg/kg/injection, schedule: Q01DX001 (ip), vehicle: saline", "value": "100 % of control"}, {"measurement": "T/C", "setting": "dose: 40.0 mg/kg/injection, schedule: Q01DX001 (ip), vehicle: saline", "value": "104 % of control"}]}, {"smiles": "NC(=O)Nc1nc(-c2ccccc2)no1", "values": [{"measurement": "T/C", "setting": "dose: 100.0 mg/kg/injection, schedule: Q01DX009 (ip), vehicle: Klucel (hydroxypropylcellulose) (HPC)", "value": "95 % of control"}, {"measurement": "T/C", "setting": "[8]", "value": "100 % of control"}, {"measurement": "T/C", "setting": "dose: 200.0 mg/kg/injection, schedule: Q01DX009 (ip), vehicle: Klucel (hydroxypropylcellulose) (HPC)", "value": "100 % of control"}, {"measurement": "T/C", "setting": "[9]", "value": "109 % of control"}, {"measurement": "T/C", "setting": "dose: 400.0 mg/kg/injection, schedule: Q01DX009 (ip), vehicle: Klucel (hydroxypropylcellulose) (HPC)", "value": "90 % of control"}, {"measurement": "T/C", "setting": "[10]", "value": "100 % of control"}]}, {"smiles": "Oc1c(Cl)c(Cl)c(Cl)c(Cl)c1Cl", "note": "(tested in a mixture with another compound)", "values": [{"measurement": "T/C", "setting": "dose: 25.0 mg/kg/injection, schedule: Q01DX009 (ip), vehicle: saline with Tween-80", "value": "109 % of control"}]}, {"smiles": "CC(O)C(O)C(O)C(O)/C=N/O", "note": "(stereo not given)", "values": [{"measurement": "T/C", "setting": "[9]", "value": "92 % of control"}, {"measurement": "T/C", "setting": "[10]", "value": "88 % of control"}]}, {"smiles": "CN1CCC=C(C(=O)N(c2ccccc2)c2ccccc2)C1", "values": [{"measurement": "T/C", "setting": "dose: 50.0 mg/kg/injection, schedule: Q04DX003 (ip), vehicle: saline", "value": "95 % of control"}, {"measurement": "T/C", "setting": "[4]", "value": "100 % of control"}, {"measurement": "T/C", "setting": "dose: 200.0 mg/kg/injection, schedule: Q04DX003 (ip), vehicle: saline", "value": "100 % of control"}]}, {"smiles": "CCc1ccc2c(c1)N(CCCN(CCCl)CCCl)c1ccccc1S2", "values": [{"measurement": "T/C", "setting": "dose: 1.56 mg/kg/injection, schedule: Q04DX003 (ip), vehicle: saline with Tween-80", "value": "102 % of control and 104 % of control"}, {"measurement": "T/C", "setting": "dose: 3.12 mg/kg/injection, schedule: Q04DX003 (ip), vehicle: saline with Tween-80", "value": "93 % of control and 104 % of control"}, {"measurement": "T/C", "setting": "dose: 6.25 mg/kg/injection, schedule: Q04DX003 (ip), vehicle: saline with Tween-80", "value": "118 % of control"}, {"measurement": "T/C", "setting": "dose: 12.5 mg/kg/injection, schedule: Q04DX003 (ip), vehicle: saline with Tween-80", "value": "163 % of control"}]}, {"smiles": "Cc1ccc(C(=S)NC(=O)NS(C)(=O)=O)cc1", "values": [{"measurement": "T/C", "setting": "dose: 100.0 mg/kg/injection, schedule: Q01DX001 (ip), vehicle: saline with Tween-80", "value": "106 % of control"}, {"measurement": "T/C", "setting": "dose: 200.0 mg/kg/injection, schedule: Q01DX001 (ip), vehicle: saline with Tween-80", "value": "105 % of control"}, {"measurement": "T/C", "setting": "dose: 400.0 mg/kg/injection, schedule: Q01DX001 (ip), vehicle: saline with Tween-80", "value": "99 % of control"}]}, {"smiles": "O=C(c1cccs1)C1Cc2ccccc2C1=O", "note": "(stereo not given)", "values": [{"measurement": "T/C", "setting": "[5]", "value": "100 % of control"}, {"measurement": "T/C", "setting": "[6]", "value": "116 % of control"}, {"measurement": "T/C", "setting": "[7]", "value": "100 % of control"}]}, {"smiles": "O=C1NC(c2cccc3ccccc23)Nc2ccccc21", "note": "(stereo not given)", "values": [{"measurement": "T/C", "setting": "dose: 50.0 mg/kg/injection, schedule: Q01DX009 (ip), vehicle: water", "value": "169 % of control"}, {"measurement": "T/C", "setting": "dose: 100.0 mg/kg/injection, schedule: Q01DX009 (ip), vehicle: water", "value": "200 % of control"}, {"measurement": "T/C", "setting": "dose: 200.0 mg/kg/injection, schedule: Q01DX009 (ip), vehicle: water", "value": "104 % of control"}]}, {"smiles": "O=C(O)c1ccc(CCCC2CCCC2)cc1", "values": [{"measurement": "T/C", "setting": "[8]", "value": "109 % of control"}, {"measurement": "T/C", "setting": "[9]", "value": "100 % of control"}]}]}
